We go through one compound from paper PMC5359555, “Mechanistic and structural basis of bioengineered bovine Cathelicidin-5 with optimized therapeutic activity” (Scientific Reports, 2017).

Where a SMILES comes first, the peptide text is derived from it.

The subject of data set [1] is osteoclasts (RANKL-induced from MDMs). Nature of the data set: RANKL-induced osteoclastogenesis. It is filed as cell-based, mouse. To be noted: 50 ng/ml RANKL plus M-CSF, TRAP staining after 4 days. The method, then:
(§1) The C57BL/6 mice (8 weeks old male) were generated and maintained in a pathogen-free environment as described elsewhere. All animal experiments were carried out under approval from the Animal Research Committee of the Research Institute for Microbial Diseases (Osaka University, Osaka, Japan). All experiments were performed in accordance with relevant guidelines and regulations of Osaka University, Japan. The stromal cell-free osteoclast culture was performed using M-CSF-derived macrophage (MDMs) precursors. The bone marrow cells were flushed from femurs or tibias and cultured for 6 h in α-MEM supplemented with 10% FCS. The non-adherent cells were collected and plated in a 96-well plate at a density of 2 × 10^3 cells/well with 25 ng/ml M-CSF (PeproTech, Rocky Hill, NJ). The cell cultures were rinsed with PBS after 3 days incubation, and the adherent cells were used as MDMs. The MDMs were induced to differentiate into osteoclasts in the presence of 50 ng/ml RANKL plus M-CSF. The cells were treated with different peptide concentration to investigate the effect of peptides on the osteoclastogenesis process. After 4 days, TRAP staining was performed and TRAP positive multinucleated cell numbers (>3 nuclei) were counted.

Data set [2] relates to E. coli DH5α strain. Nature of the data set: Transmission electron microscopy, E. coli DH5α. It is filed as cell-based, Escherichia coli DH5α. The following applies: 4 μM. The procedure: E. coli DH5α and BL21 strains were subjected to TEM analysis. E. coli strains were cultured at 37°C in LB broth to mid-log phase and harvested by centrifugation at 5000 g for 5 minutes. The cell pellets were re-suspended in fresh LB media with an OD600 = 0.18. […] The culture was centrifuged at 5000 g for 5 minutes and the cell pellets were collected. The cell pellets were washed twice and re-suspended in 1 mL fixation buffer that contains 2% formaldehyde, 2.5% glutaryldehide in 0.1 M phosphate buffer (pH = 7.4). The fixed bacterial cells were observed under the microscope, JEM-1011 (JEOL, Tokyo, Japan).

Data set [3] concerns RBCs. As to the kind of experiment: Hemolytic assay (hemoglobin release). It is filed as cell-based. The following applies: 30 μM; RBCs hematocrit ~5%, 1 h 37 °C, absorbance 540 nm, 100% = 2% Triton X-100. The method, then:
Plasmodium falciparum strain 3D7 was cultured in RPMI-1640 supplemented with 25 mg/l L-Glutamine; HEPES, NaHCO3; 50 mg/l Hypoxanthin; Gentamicien; 10% human serum; and RBCs at 3% hematocrit in an atmosphere of 5% CO2, 5% O2, and 90% N2 at 37°C as previously described. The Plasmodium lactate dehydrogenase (pLDH) assay was performed to measure the parasitic growth inhibition as described elsewhere[49] with BMAP-28 and its analogues treatment. In brief, malstat reagent was added to a 96-well plate (100 μL in each well). A Plasmodium infected RBC mixture of 20 μL in each well was mixed thoroughly using a plate shaker. And then 10 μL of each 1 mg/ml diaphorase and Nitroblue tetrozolium (NBT) were added to each well. The solution in the 96-well plate was mixed properly until a brown color appears and the absorbance was measured at 650 nm under a plate reader (PowerWaveHT, BioTek Instruments, USA). The hemolytic assay was carried out as described earlier. Briefly, RBCs prepared from fresh blood (Hematocrit ~5%) were incubated for 1 h at 37 °C after addition of test peptides. Relative hemoglobin concentration in supernatants after centrifugation at 2000× g for 5 min was monitored by measuring the absorbance at 540 nm by the plate reader (PowerWaveHT, BioTek Instruments, USA). As positive control, 100% hemolysis was taken from samples in which 2% Triton X-100 was added.

Data set [4] has as its system E. coli BL21 strain. Nature of the data set: Transmission electron microscopy, E. coli BL21. To be noted: E. coli BL21, 2 μM, 1 hour 37 °C. It is filed as cell-based, Escherichia coli BL21. The procedure: E. coli DH5α and BL21 strains were subjected to TEM analysis. E. coli strains were cultured at 37°C in LB broth to mid-log phase and harvested by centrifugation at 5000 g for 5 minutes. The cell pellets were re-suspended in fresh LB media with an OD600 = 0.18. A peptide (Syn1) solution at a concentration of 2 μM (MIC) was added to E. coli DH5α and BL21 strains and the samples were incubated at 37°C for 1 hour. The culture was centrifuged at 5000 g for 5 minutes and the cell pellets were collected. The cell pellets were washed twice and re-suspended in 1 mL fixation buffer that contains 2% formaldehyde, 2.5% glutaryldehide in 0.1 M phosphate buffer (pH = 7.4). The fixed bacterial cells were observed under the microscope, JEM-1011 (JEOL, Tokyo, Japan).

In data set [5] the test system is E. coli BL21 cells. Nature of the data set: Flow cytometry propidium iodide influx, E. coli BL21. It is filed as cell-based, Escherichia coli BL21. To be noted: E. coli BL21, at peptide MIC; 30 min peptide, 10 μg ml^−1 PI. The method, then: The effect of peptides on the cell-membrane integrity of E. coli BL21 and DH5α and lymphoma cells was studied using the flow cytometer analysis as described elsewhere. The cells were cultured and washed three times using PBS buffer and incubated for 30 minutes with peptides at different concentration. The incubated lymphoma cells were further processed referring to the annexin V-FITC apoptosis kit. Peptide treated and untreated cells (E. coli/lymphoma) were stained with 10 μg ml^−1 propidium iodide (PI) and incubated for additional 30 min. The incubated cells were washed using PBS to remove unbound dye and flow cytometry analysis was carried out using the FACSCalibur and analyzed by CellQuest Pro Version 5.2.1 software (BD Biosciences, NJ, USA).
For orientation: A flow cytometer gives signals particle by particle.

The test system of data set [6] is B16-F1 melanoma cells. Nature of the data set: MTT cell-viability assay, B16-F1 melanoma. It is filed as cell-based, mouse. The method, then:
The T-cell lymphoma (Jurkat) and B-cell lymphoma (Ramos) were cultured using RPMI-1640 medium supplemented with 10% fetal calf serum (FCS), 100 U ml^−1 penicillin and 100 μg ml^−1 streptomycin. An initial cell densities of 5 × 10^3 cells/well was uniformly maintained in a 96 well plate. The B16-F1 melanoma cells were grown in DMEM medium containing 10% FCS, 100 U ml^−1 penicillin and 100 μg ml^−1 streptomycin and 55 μM 2-mercaptoethanol. The cells were trypsinized and plated in a 96-well plate at a density of 5 × 10^3 cells/well. The cells were grown overnight at 37 °C using a 5% CO2 incubator. The cells were treated with different peptide concentration followed by cell proliferation assay. The MTT assay kit (Cayman chemicals, USA) was used to measure the cell viability at a peptide concentration varying from 2 to 15 μM (in triplicate). Fresh culture medium and cells in medium without peptide were considered as negative and positive controls for viability assay and was monitored at 24, 48 and 72 h. The Cayman MTT cell proliferation assay protocol was followed, and the absorbance were recorded at 570 nm using a microplate reader (PowerWaveHT, BioTek Instruments, USA).

Data set [7] concerns B16-F1 melanoma tumor. As to the kind of experiment: In vivo B16-F1 melanoma mouse model. To be noted: C57BL/6 mice n = 6, subcutaneous. The procedure:
as §1, with “The MDMs were induced to differentiate into osteoclasts in the presence of 50 ng/ml RANKL plus M-CSF. The cells were treated with different peptide concentration to investigate the effect of peptides on the osteoclastogenesis process.” left out
Healthy C57BL/6 mice (n = 6) were administered with 30 μM Syn1 peptide mixed with 1 × 10^6 B16-F1 melanoma cells in 0.1 ml of saline via subcutaneous injections. […] The growth size of tumors were monitored in every two days and the tumor volume was measured by a dial-caliper on day 14 and 20 using the formula volume = width^2 × length × 0.52.

`CC[C@H](C)[C@H](NC(=O)[C@H](CCCCN)NC(=O)[C@H](CCCNC(=N)N)NC(=O)CNC(=O)[C@H](Cc1ccccc1)NC(=O)[C@H](CO)NC(=O)[C@H](CCCNC(=N)N)NC(=O)[C@H](Cc1ccccc1)NC(=O)CNC(=O)CN)C(=O)N[C@@H](Cc1ccccc1)C(=O)N[C@@H](CCCNC(=N)N)C(=O)N[C@@H](C)C(=O)N[C@@H](Cc1c[nH]c2ccccc12)C(=O)N[C@@H](CCCCN)C(=O)N[C@@H](CCCCN)C(=O)N[C@@H](Cc1ccc(O)cc1)C(=O)NCC(N)=O` [Syn1] (H-GGFRSFGRKIFRAWKKYG-NH2; N-terminus assumed): the “activity in RANKL-induced osteoclastogenesis (in words)” value in data set [1] (3 μM) was “significant activity”; in data set [1] (10 μM), “complete abolition”. Besides, the “TEM: membrane abnormalities or disruption (in words)” value in data set [2] was “not observed”. Besides, the “Hemoglobin release (%) / hemolysis” value in data set [3] stood at 7.2%. The “TEM observation (in words)” value in data set [4] is “membrane disruption and cell lysis”. Moreover, in data set [5], the PI influx is ~ 100%. In data set [6], the “concentration found to be active” value is listed as ~ 30 μM. Further, the “anticancer activity (in words)” value in data set [6] (10 μM) is “fairly low anticancer activity”. Besides, in data set [7] (30 μM Syn1 mixed with 1 × 10^6 B16-F1 cells in 0.1 ml saline, day 14 and 20), the “tumor formation (in words)” value is “no tumor formation”. In addition, the “survival (in words)” value in data set [7] (30 μM Syn1 mixed with 1 × 10^6 B16-F1 cells) was “alive”.
